Data set [1] relates to A431 cells. Nature of the data set: Inhibition of cellular proliferation (sulforhodamine B staining). As to conditions: for A431 HCR (Hypoxic Cytotoxicity Ratio): fold change in intra-experimental IC50, 4 hours anoxia relative to oxic only. Background: The SRB assay estimates cell density from bound dye.
For data set [2], the system named is SKOV3 cells. The data set is described as above. As to conditions: for SKOV3 HCR (Hypoxic Cytotoxicity Ratio): fold change in intra-experimental IC50, 4 hours anoxia relative to oxic only.
In data set [3] the test system is H1975 cells. Described as above. As to conditions: for H1975 HCR (Hypoxic Cytotoxicity Ratio): fold change in intra-experimental IC50, 4 hours anoxia relative to oxic only.
Data set [4] deals with H1975 tumours. The following applies: H1975 xenograft, q3dx4, intraperitoneal; for Drug related deaths: lactate buffer pH 4; for Weight Loss Nadir (%): mean nadir relative to day 0 weight.
[5] abbreviates: read-out: Cellular Growth Inhibition IC50 A431 Anoxic, initial 4 hours of the 24 hour exposure under anoxic conditions.
The mark [6] stands for this setting: read-out: Cellular Growth Inhibition IC50 A431 Oxic, 24 hour exposure entirely under oxic conditions, washed, further 4 days.
The mark [7] stands for this setting: read-out: Cellular Growth Inhibition IC50 SKOV3 Anoxic, initial 4 hours of the 24 hour exposure under anoxic conditions.
Where [8] appears, read: read-out: Cellular Growth Inhibition IC50 SKOV3 Oxic, 24 hour exposure entirely under oxic conditions, washed, further 4 days.
Where [9] appears, read: read-out: Cellular Growth Inhibition IC50 H1975 Anoxic, initial 4 hours of the 24 hour exposure under anoxic conditions.
The mark [10] stands for this setting: read-out: Cellular Growth Inhibition IC50 H1975 Oxic, 24 hour exposure entirely under oxic conditions, washed, further 4 days.

Like-named read-outs stand apart in the source and are kept apart here.

A word on the IC50: it is the concentration that gives 50% inhibition. In the case of `C#Cc1cc(Nc2ncnc3cnc(NC(=O)/C=C/C[N+](C)(C)Cc4c([N+](=O)[O-])ncn4C)cc23)ccc1F` [Compound 20, (2E)-4-{[4-(3-ethynyl-4-fluoroanilino)pyrido[3,4-d]pyrimidin-6-yl]amino}-N,N-dimethyl-N-[(1-methyl-4-nitro-1H-imidazol-5-yl)methyl]-4-oxo-2-buten-1-ammonium bromide], the 50% inhibitory concentration (IC50) in data set [1] (setting [5]) came out at 130 nM; in data set [1] (setting [6]), 3900 nM; in data set [2] (setting [7]), 4400 nM; in data set [2] (setting [8]), 194000 nM; in data set [3] (setting [9]), 3300 nM; in data set [3] (setting [10]), 118000 nM. Further, in data set [2], the “SKOV3 HCR (Hypoxic Cytotoxicity Ratio)” value was determined as 15. For the same compound, the Drug related deaths in data set [4] is reported as 0. In addition, the “Weight Loss Nadir (%)” value in data set [4] is given as −4.4 ± 2.3%.
In the case of `CN(C)C/C=C/C(=O)Nc1cc2c(Nc3ccc4c(cnn4Cc4cccc(F)c4)c3)ncnc2cn1` [Compound 2, (2E)-4-(dimethylamino)-N-(4-{[1-(3-fluorobenzyl)-1H-indazol-5-yl]amino}pyrido[3,4-d]pyrimidin-6-yl)-2-butenamide], the “A431 HCR (Hypoxic Cytotoxicity Ratio)” value in data set [1] was determined as 1.0. Besides, the IC50 in data set [1] (setting [5]) was 90 nM; in data set [2] (setting [7]) it was 900 nM; in data set [3] (setting [9]), 1000 nM. Further, the Drug related deaths in data set [4] was determined as 0. Besides, the “Weight Loss Nadir (%)” value in data set [4] is −7.9 ± 0.6%.
Take `CN(C)C/C=C/C(=O)Nc1cc2c(Nc3ccc(Cl)c(Cl)c3)ncnc2cn1` [Compound 4, (2E)-N-[4-(3,4-dichloroanilino)pyrido[3,4-d]pyrimidin-6-yl]-4-(dimethylamino)-2-butenamide]: in data set [1], the “A431 HCR (Hypoxic Cytotoxicity Ratio)” value was found to be 0.9. Also, the half-inhibitory concentration (IC50) came to 15 nM in data set [1] (setting [5]); 9 nM in data set [1] (setting [6]); 550 nM in data set [2] (setting [7]); 360 nM in data set [2] (setting [8]); 560 nM in data set [3] (setting [9]). The “SKOV3 HCR (Hypoxic Cytotoxicity Ratio)” value in data set [2] was determined as 0.9. In data set [4], this compound had a Drug related deaths of 0. Besides, in data set [4], the “Weight Loss Nadir (%)” value is −9.7 ± 4.0%.
`Cn1cnc([N+](=O)[O-])c1C[N+](C)(C)C/C=C/C(=O)Nc1cc2c(Nc3ccc(OCc4cccc(Cl)c4)c(Cl)c3)ncnc2cn1` [Compound 12, (2E)-4-[(4-{3-chloro-4-[(3-chlorobenzyl)oxy]anilino}pyrido[3,4-d]pyrimidin-6-yl)amino]-N,N-dimethyl-N-[(1-methyl-4-nitro-1H-imidazol-5-yl)methyl]-4-oxo-2-buten-1-ammonium bromide]: the IC50 in data set [1] (setting [5]) stood at 370 nM; in data set [1] (setting [6]), 2900 nM; in data set [2] (setting [7]), 8100 nM; in data set [2] (setting [8]), 47000 nM; in data set [3] (setting [9]), 2400 nM; in data set [3] (setting [10]), 36000 nM. The “SKOV3 HCR (Hypoxic Cytotoxicity Ratio)” value in data set [2] stood at 26. Also, the “H1975 HCR (Hypoxic Cytotoxicity Ratio)” value in data set [3] was 14. Further, the Drug related deaths in data set [4] was determined as 0. Further, the “Weight Loss Nadir (%)” value in data set [4] is recorded as −7.8 ± 0.6%.
`Cc1nc([N+](=O)[O-])c(C[N+](C)(C)C/C=C/C(=O)Nc2cc3c(Nc4ccc5c(cnn5Cc5cccc(F)c5)c4)ncnc3cn2)n1C` [Compound 14, (2E)-N-[(1,2-dimethyl-4-nitro-1H-imidazol-5-yl)methyl]-4-[(4-{[1-(3-fluorobenzyl)-1H-indazol-5-yl]amino}pyrido[3,4-d]pyrimidin-6-yl)amino]-N,N-dimethyl-4-oxo-2-buten-1-ammonium bromide]: the IC50 in data set [1] (setting [5]) turned out to be 63 nM; in data set [1] (setting [6]), 5700 nM; in data set [2] (setting [7]), 1100 nM; in data set [2] (setting [8]) it was 32000 nM; in data set [3] (setting [9]) it was 1200 nM; in data set [3] (setting [10]), 20000 nM. Further, the “H1975 HCR (Hypoxic Cytotoxicity Ratio)” value in data set [3] is on record as 26.

The values above are taken from patent publication US9101632B2, “Kinase inhibitors, prodrug forms thereof and their use in therapy” (AUCKLAND UNISERVICES LIMITED, priority 2009, dated 2015).
